One assay concerns NCI-H460. The assay is described as follows: Cytotoxicity against human NCI-H460 cells assessed as cell viability incubated for 48 hrs by MTT assay. In kind it is functional, cell-based. The note with it: NCI-H460, 48 h.
Another assay relates to A549. Description: Cytotoxicity against human A549 cells assessed as cell viability incubated for 48 hrs by MTT assay. In kind it is functional, cell-based. The note with it: A549, 48 h. (Tetrazolium assays rely on reduction of a dye to a coloured formazan, in cell work by metabolically active cells.)

A value given as a limit tells only on which side of the number the result lay.

For 40 compounds, IC50 results are on record in ChEMBL document CHEMBL6121052, “Design of ROS-Triggered Sesquiterpene Lactone SC Prodrugs as TrxR1 Covalent Inhibitors for the Treatment of Non-Small Cell Lung Cancer” (J Med Chem, 2025).

The term IC50 denotes the concentration that gives 50% inhibition. In the case of `C/C1=C\[C@@H](OC(=O)/C=C/c2ccccc2)[C@H]2[C@H](CC3=C[C@H](C1)OC3=O)OC(=O)[C@@H]2CSc1ccc(F)cc1`, the IC50 was greater than 25 µM in the assay with NCI-H460 and 11.3 µM in the assay with A549.
Taken in the same sequence, the figures for `C/C1=C\[C@@H](OC(=O)c2ccccc2)[C@H]2[C@H](CC3=C[C@H](C1)OC3=O)OC(=O)[C@@H]2CSc1ccc(Br)cc1` were greater than 25 µM and 8.85 µM.
Taken in the same sequence, the figures for `C/C1=C\[C@@H](OC(=O)/C=C/c2ccccc2)[C@H]2[C@H](CC3=C[C@H](C1)OC3=O)OC(=O)[C@@H]2CSCCOCCOCCSC[C@H]1C(=O)O[C@H]2CC3=C[C@H](C/C(C)=C/[C@@H](OC(=O)/C=C/c4ccccc4)[C@@H]21)OC3=O` were greater than 25 µM and greater than 25 µM.
In the case of `C/C1=C\[C@@H](OC(=O)C2CC2)[C@H]2[C@H](CC3=C[C@H](C1)OC3=O)OC(=O)[C@@H]2CSc1ccc(Cl)cc1`, the IC50 in the assay on NCI-H460 is greater than 25 µM; in the assay on A549, 6.03 µM.
On the same counts, the results for `C/C1=C\[C@@H](OC(=O)c2ccccc2)[C@H]2[C@H](CC3=C[C@H](C1)OC3=O)OC(=O)[C@@H]2CSc1ccc(C(F)(F)F)cc1` are 24.4 µM and 3.74 µM.
In the case of `C/C1=C\[C@@H](O)[C@H]2[C@H](CC3=C[C@H](C1)OC3=O)OC(=O)[C@@H]2CSCCCCCSC[C@H]1C(=O)O[C@H]2CC3=C[C@H](C/C(C)=C/[C@@H](O)[C@@H]21)OC3=O`, the IC50 in the assay on NCI-H460 and in the assay with A549 was greater than 25 µM each time.
Consider `C/C1=C\[C@@H](O)[C@H]2[C@H](CC3=C[C@H](C1)OC3=O)OC(=O)[C@@H]2CSCC(C)C`, for which the IC50 in the assay with NCI-H460 and in the assay with A549 was greater than 25 µM in each case.
Turning to `C/C1=C\[C@@H](OC(=O)c2ccccc2)[C@H]2[C@H](CC3=C[C@H](C1)OC3=O)OC(=O)[C@@H]2CSc1ccc(Cl)cc1`, the values for the IC50 in the assay on NCI-H460 and in the assay with A549 were 20.6 µM and 4.14 µM, respectively.
On the same counts, the results for `C/C1=C\[C@@H](O)[C@H]2[C@H](CC3=C[C@H](C1)OC3=O)OC(=O)[C@@H]2CSCc1ccc(Cl)cc1` are greater than 25 µM and greater than 25 µM.
On to `C/C1=C\[C@@H](OC(=O)/C=C/c2ccccc2)[C@H]2[C@H](CC3=C[C@H](C1)OC3=O)OC(=O)[C@@H]2CSC1CCCCC1`, for which the IC50 in the assay on NCI-H460 and in the assay on A549 was greater than 25 µM each time.
`CCCNC(=S)SC[C@H]1C(=O)O[C@H]2CC3=C[C@H](C/C(C)=C/[C@@H](OC(=O)C4CC4)[C@@H]21)OC3=O`: the IC50 was found to be 24.9 µM in the assay with NCI-H460 and 2.85 µM in the assay on A549.
On the same counts, the results for `C/C1=C\[C@@H](OC(=O)c2ccccc2)[C@H]2[C@H](CC3=C[C@H](C1)OC3=O)OC(=O)[C@@H]2CSc1cccc(Br)c1` are greater than 25 µM and 3.66 µM.
In the case of `C/C1=C\[C@@H](O)[C@H]2[C@H](CC3=C[C@H](C1)OC3=O)OC(=O)[C@@H]2CSc1ccc(Cl)cc1`, the IC50 in the assay on NCI-H460 and in the assay on A549 was greater than 25 µM in each case.
With `C/C1=C\[C@@H](OC(=O)C2CC2)[C@H]2[C@H](CC3=C[C@H](C1)OC3=O)OC(=O)[C@@H]2CSC(=S)N1CCOCC1`, the IC50 is greater than 25 µM in the assay with NCI-H460 and 0.83 µM in the assay with A549.
Take `C/C1=C\[C@@H](OC(=O)c2ccccc2)[C@H]2[C@H](CC3=C[C@H](C1)OC3=O)OC(=O)[C@@H]2CSc1ccc([N+](=O)[O-])cc1`: the IC50 with NCI-H460 is greater than 25 µM; in the assay with A549, 2.59 µM.
Turning to `C/C1=C\[C@@H](OC(=O)C2CC2)[C@H]2[C@H](CC3=C[C@H](C1)OC3=O)OC(=O)[C@@H]2CSc1cccc(Br)c1`, the figures for the IC50 in the assay on NCI-H460 and in the assay with A549 were greater than 25 µM and 5.77 µM, respectively.
Take `C/C1=C\[C@@H](OC(=O)C2CC2)[C@H]2[C@H](CC3=C[C@H](C1)OC3=O)OC(=O)[C@@H]2CSC(=S)NC(C)C`: the IC50 in the assay on NCI-H460 was greater than 25 µM; in the assay on A549, 1.94 µM.
Regarding `C/C1=C\[C@@H](OC(=O)/C=C/c2ccccc2)[C@H]2[C@H](CC3=C[C@H](C1)OC3=O)OC(=O)[C@@H]2CSc1ccc(Cl)cc1`, the results for the IC50 in the assay with NCI-H460 and with A549 were greater than 25 µM and 7.5 µM, respectively.
For the compound `C/C1=C\[C@@H](O)[C@H]2[C@H](CC3=C[C@H](C1)OC3=O)OC(=O)[C@@H]2CSc1ccc(Br)cc1`, the IC50 was greater than 25 µM in the assay with NCI-H460 and 15.2 µM with A549.
On the same counts, the results for `C/C1=C\[C@@H](OC(=O)c2ccccc2)[C@H]2[C@H](CC3=C[C@H](C1)OC3=O)OC(=O)[C@@H]2CSCCCCCCSC[C@H]1C(=O)O[C@H]2CC3=C[C@H](C/C(C)=C/[C@@H](OC(=O)c4ccccc4)[C@@H]21)OC3=O` are greater than 25 µM and greater than 25 µM.
On the same counts, the results for `C/C1=C\[C@@H](O)[C@H]2[C@H](CC3=C[C@H](C1)OC3=O)OC(=O)[C@@H]2CSCCCCCCCCCCSC[C@H]1C(=O)O[C@H]2CC3=C[C@H](C/C(C)=C/[C@@H](O)[C@@H]21)OC3=O` are greater than 25 µM and greater than 25 µM.
Taken in the same sequence, the figures for `C/C1=C\[C@@H](OC(=O)C2CC2)[C@H]2[C@H](CC3=C[C@H](C1)OC3=O)OC(=O)[C@@H]2CSC(=S)NC1CCCC1` were greater than 25 µM and 2.63 µM.
In the case of `C/C1=C\[C@@H](OC(=O)/C=C/c2ccccc2)[C@H]2[C@H](CC3=C[C@H](C1)OC3=O)OC(=O)[C@@H]2CSCC(C)C`, the IC50 with NCI-H460 and in the assay on A549 was greater than 25 µM throughout.
Regarding `COc1ccc(SC[C@H]2C(=O)O[C@H]3CC4=C[C@H](C/C(C)=C/[C@@H](OC(=O)/C=C/c5ccccc5)[C@@H]32)OC4=O)cc1`, the IC50 in the assay with NCI-H460 is greater than 25 µM; in the assay on A549, 14 µM.
Taken in the same sequence, the figures for `C/C1=C\[C@@H](OC(=O)c2ccccc2)[C@H]2[C@H](CC3=C[C@H](C1)OC3=O)OC(=O)[C@@H]2CSCC(C)C` were greater than 25 µM and greater than 25 µM.
Taken in the same sequence, the figures for `C/C1=C\[C@@H](OC(=O)/C=C/c2ccccc2)[C@H]2[C@H](CC3=C[C@H](C1)OC3=O)OC(=O)[C@@H]2CSCCCCCSC[C@H]1C(=O)O[C@H]2CC3=C[C@H](C/C(C)=C/[C@@H](OC(=O)/C=C/c4ccccc4)[C@@H]21)OC3=O` were greater than 25 µM and greater than 25 µM.
On the same counts, the results for `C/C1=C\[C@@H](OC(=O)C2CC2)[C@H]2[C@H](CC3=C[C@H](C1)OC3=O)OC(=O)[C@@H]2CSCCCCCCCCCCSC[C@H]1C(=O)O[C@H]2CC3=C[C@H](C/C(C)=C/[C@@H](OC(=O)C4CC4)[C@@H]21)OC3=O` are greater than 25 µM and greater than 25 µM.
As for `C/C1=C\[C@@H](OC(=O)c2ccccc2)[C@H]2[C@H](CC3=C[C@H](C1)OC3=O)OC(=O)[C@@H]2CSCCCCCSC[C@H]1C(=O)O[C@H]2CC3=C[C@H](C/C(C)=C/[C@@H](OC(=O)c4ccccc4)[C@@H]21)OC3=O`, the IC50 with NCI-H460 and with A549 was greater than 25 µM each time.
`C/C1=C\[C@@H](OC(=O)c2ccccc2)[C@H]2[C@H](CC3=C[C@H](C1)OC3=O)OC(=O)[C@@H]2CSc1ccc(F)cc1`: the figures for the IC50 with NCI-H460 and in the assay on A549 were greater than 25 µM and 7.18 µM, respectively.
On the same counts, the results for `C/C1=C\[C@@H](O)[C@H]2[C@H](CC3=C[C@H](C1)OC3=O)OC(=O)[C@@H]2CSCCCCCCSC[C@H]1C(=O)O[C@H]2CC3=C[C@H](C/C(C)=C/[C@@H](O)[C@@H]21)OC3=O` are greater than 25 µM and 21.9 µM.
With `C/C1=C\[C@@H](O)[C@H]2[C@H](CC3=C[C@H](C1)OC3=O)OC(=O)[C@@H]2CSCCCCCCCCSC[C@H]1C(=O)O[C@H]2CC3=C[C@H](C/C(C)=C/[C@@H](O)[C@@H]21)OC3=O`, the IC50 in the assay on NCI-H460 and with A549 was greater than 25 µM each time.
Consider `CCCCCSC[C@H]1C(=O)O[C@H]2CC3=C[C@H](C/C(C)=C/[C@@H](O)[C@@H]21)OC3=O`, for which the IC50 with NCI-H460 and in the assay on A549 was greater than 25 µM in each case.
Turning to `C/C1=C\[C@@H](OC(=O)/C=C/c2ccccc2)[C@H]2[C@H](CC3=C[C@H](C1)OC3=O)OC(=O)[C@@H]2CSc1ccc(Br)cc1`, the IC50 in the assay on NCI-H460 is greater than 25 µM; in the assay with A549 it was 11.8 µM.
With `C/C1=C\[C@@H](OC(=O)/C=C/c2ccccc2)[C@H]2[C@H](CC3=C[C@H](C1)OC3=O)OC(=O)[C@@H]2CSc1ccc(SC[C@H]2C(=O)O[C@H]3CC4=C[C@H](C/C(C)=C/[C@@H](OC(=O)/C=C/c5ccccc5)[C@@H]32)OC4=O)cc1`, the IC50 in the assay with NCI-H460 and in the assay on A549 was greater than 25 µM throughout.
Take `C/C1=C\[C@@H](O)[C@H]2[C@H](CC3=C[C@H](C1)OC3=O)OC(=O)[C@@H]2CSc1cccc(Br)c1`: the IC50 in the assay on NCI-H460 and in the assay on A549 was greater than 25 µM in each case.
For the compound `C/C1=C\[C@@H](OC(=O)C2CC2)[C@H]2[C@H](CC3=C[C@H](C1)OC3=O)OC(=O)[C@@H]2CSCCCCCCCCSC[C@H]1C(=O)O[C@H]2CC3=C[C@H](C/C(C)=C/[C@@H](OC(=O)C4CC4)[C@@H]21)OC3=O`, the 50% inhibitory concentration (IC50) in the assay with NCI-H460 and with A549 was greater than 25 µM each time.
Consider `C/C1=C\[C@@H](O)[C@H]2[C@H](CC3=C[C@H](C1)OC3=O)OC(=O)[C@@H]2CSc1ccc(SC[C@H]2C(=O)O[C@H]3CC4=C[C@H](C/C(C)=C/[C@@H](O)[C@@H]32)OC4=O)cc1`, for which the IC50 in the assay on NCI-H460 and with A549 was greater than 25 µM throughout.
With `C/C1=C\[C@@H](O)[C@H]2[C@H](CC3=C[C@H](C1)OC3=O)OC(=O)[C@@H]2CSc1nc2ccccc2s1`, the IC50 in the assay on NCI-H460 and in the assay with A549 was greater than 25 µM throughout.
As for `C/C1=C\[C@@H](OC(=O)C2CC2)[C@H]2[C@H](CC3=C[C@H](C1)OC3=O)OC(=O)[C@@H]2CSc1nc2ccccc2s1`, the IC50 in the assay on NCI-H460 is greater than 25 µM; with A549, 17.2 µM.
Taken in the same sequence, the figures for `C/C1=C\[C@@H](OC(=O)C2CC2)[C@H]2[C@H](CC3=C[C@H](C1)OC3=O)OC(=O)[C@@H]2CSc1cccc(F)c1` were 13.2 µM and 5.4 µM.
